Test results published in patent US10864211B2, “Hydroxy isoxazole compounds useful as GPR120 agonists” (Merck Sharp & Dohme Corp., priority 2016, dated 2020).
Where a name gives a salt, the structure may show the parent alone.

Biological target: T1, human GPR120 (Homo sapiens, UniProt Q5NUL3)
T1 construct: expressed in transfected cells; host or cells: CHO-K1
T1 sequence (Q5NUL3 1-361): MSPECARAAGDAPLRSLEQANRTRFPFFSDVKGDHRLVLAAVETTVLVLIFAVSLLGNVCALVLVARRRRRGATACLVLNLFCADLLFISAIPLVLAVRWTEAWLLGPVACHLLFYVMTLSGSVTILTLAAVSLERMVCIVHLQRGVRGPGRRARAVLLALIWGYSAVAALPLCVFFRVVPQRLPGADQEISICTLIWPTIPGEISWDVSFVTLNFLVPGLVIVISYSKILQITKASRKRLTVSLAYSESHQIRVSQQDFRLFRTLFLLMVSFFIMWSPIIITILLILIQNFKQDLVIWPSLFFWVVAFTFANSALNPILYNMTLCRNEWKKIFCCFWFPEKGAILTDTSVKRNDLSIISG
Experiment: Human GPR120 IP1 assay (inositol phosphate turnover)
Format: cell-based
Settings: IP1 accumulation in CHO-K1 cells stably expressing the short form of human GPR120
From the text: The binding of small molecule agonists to the G-protein-coupled receptor GPR120 activates phospholipase C, and leads to the generation of inositol 1,4,5-trisphosphate (InsP3 or IP3). IP3 is subsequently de-phosphorylated to IP1, which accumulates in cells and is stable in the presence of lithium chloride.
In the present method, agonist-induced activation of the human and rat GPR120 receptor was monitored by measuring the accumulation of IP1 in CHO-K1 cells that were stably expressing the short form of human GPR120 (Accession #NM_001195755) or HEK293 cells stably expressing rat GPR120 (Accession #NM_001047088). Following agonist addition, GPR120 activation and subsequent accumulation of IP1 was measured using a homogeneous Time Resolved Fluorescence-based ELISA commercially available from CisBio (IP-one ELISA Kit). The IP-One ELISA was a competitive immunoassay which uses IP1 labeled with […] and a terbium cryptate-labeled anti-IP1 monoclonal antibody. […] The signal loss was then back calculated to IP1 concentration using an IP1 standard curve. Determination of IP1 concentration was a direct measure of GPR120 activation and was used to determine compound potency (EC50).
Human GPR120 stable cell-lines were generated in CHO cells. The expression plasmids were transfected using lipofectamine (Life Technologies) following manufacturer's instructions. Stable cell-lines were generated following drug selection and single cell cloning. Rat GPR120 stable cell-lines were generated in HEK cells using the Jump-In™ cell engineering platform (Life Technologies) following manufacturer's instructions. Stable cell-lines were generated following drug selection and single cell cloning.
The assay was performed in 384-well format. CHO cells stably expressing human GPR120 were plated at 20,000 cells per well in growth medium (DMEM/F12, 10% fetal calf serum). HEK293 cells stably expressing rat GPR120 were plated at […] per well in growth medium (DMEM, 10% fetal calf serum). Cell plates were then incubated 16 hours at 37 degrees in a 5% CO2 incubator. Measurement of Inositol Phosphate Turnover (IP1) was performed using the CisBio IP-One kit (Part number 62IPAPEB). After the 16 hour incubation, the growth media was removed by centrifugation using the BlueWasher (AusWasher GUI Ver. v1.0.1.8) Protocol #21-“Light Dry” and 10 μl of stimulation buffer (prepared as described in the kit) was added to each well. In a separate plate, compounds were diluted in DMSO (200-fold over the final concentration in the assay well) and 50 nl was acoustically transferred to the appropriate well in the assay cell plate. The plates were then incubated for 60 minutes at 37 degrees in a 5% CO2 incubator. 10 μl of detection buffer (also prepared as described in the IP-One kit) was added to each well and the plates were incubated at room temperature for 60 minutes in the dark. The plates were then read in a Perkin ElmerEnVision or equivalent reader able to measure FRET. Fluorescent ratio of emission at 665 and 620 nm was then converted to the IP1 concentration by back calculating from an IP1 standard curve prepared at the time of the assay. The data was normalized to % activity using a reference compound, and the EC50 values were determined using a standard 4-parameter fit.

Row | SMILES | EC50 [µM]
1 | Oc1cc(-c2ccc(O[C@H]3C[C@@H](c4cc(OC(F)(F)F)ccc4F)C3)nc2)on1 [Example 11, ammonium 5-[6-({cis-3-[2-fluoro-5-(trifluoromethoxy)phenyl]cyclo-butyl}oxy)pyridin-3-yl]isoxazol-3-olate] | 0.112
2 | Oc1cc(-c2ccc(O[C@H]3C[C@@H](C4CCCCC4)C3)nc2)on1 [Example 37, 2-[(cis-3-cyclohexylcyclobutyl)oxy]-5-(3-hydroxyisoxazol-5-yl)pyridinium chloride] | 0.161
3 | Cc1ccc([C@H]2C[C@@H](Oc3ncc(-c4cc(O)no4)cn3)C2)c(F)c1 [Example 114, sodium 5-(2-{[cis-3-(2-fluoro-4-methylphenyl)cyclobutyl]oxy}pyrimidin-5-yl)isoxazol-3-olate] | 0.191
4 | Oc1cc(-c2cnc(O[C@H]3C[C@@H](c4ncc(C(F)(F)F)s4)C3)cn2)on1 [Example 6, 5-[5-({cis-3-[5-(trifluoromethyl)-1,3-thiazol-2-yl]cyclobutyl}oxy)pyrazin-2-yl]isoxazol-3-ol] | 0.129
5 | Oc1cc(-c2cnc(O[C@H]3C[C@@H](c4cc(F)c(Cl)c(F)c4)C3)cn2)on1 [Example 52, 5-(5-{[cis-3-(4-chloro-3,5-di-fluorophenyl)cyclobutyl]oxy}pyrazin-2-yl)isoxazol-3-ol] | 0.028
6 | Oc1cc(-c2ccc(O[C@H]3C[C@@H](c4ccnc(C(F)(F)F)c4)C3)nc2)on1 [Example 21, 5-(3-hydroxyisoxazol-5-yl)-2-({cis-3-[2-(trifluoromethyl)-pyridin-4-yl]cyclobutyl}-oxy)pyridinium chloride] | 0.254
7 | Oc1cc(-c2cnc(O[C@H]3C[C@](F)(c4cc(OC(F)(F)F)ccc4F)C3)cn2)on1 [Example 106, 5-[5-({cis-3-fluoro-3-[2-fluoro-5-(trifluoromethoxy)phenyl]cyclobutyl}oxy)pyrazin-2-yl]isoxazol-3-ol] | 0.091
8 | Oc1cc(-c2cnc(O[C@H]3C[C@@H](c4ccc(-c5cc(F)ccn5)cc4)C3)cn2)on1 [Example 17, ammonium 5-[5-({cis-3-[4-(4-fluoropyridin-2-yl)phenyl]cyclobutyl}oxy)pyrazin-2-yl]isoxazol-3-olate] | 0.086
9 | Oc1cc(-c2cnc(OC3CC(c4ccc5c(c4)OC(F)(F)O5)C3)nc2)on1 (centres unmarked) [Example 113, sodium 5-(2-{[3-(2,2-difluoro-1,3-benzodioxol-5-yl)cyclobutyl]oxy}pyrimidin-5-yl)isoxazol-3-olate] | 0.041
10 | Oc1cc(-c2cnc(O[C@H]3C[C@@](F)(c4ccc(Cl)cc4)C3)cn2)on1 [Example 108, 5-(5-{[trans-3-(4-chlorophenyl)-3-fluorocyclobutyl]oxy}pyrazin-2-yl)isoxazol-3-ol] | 0.014
11 | Oc1cc(-c2ccc(OC3CCC(c4cccc(OC(F)(F)F)c4)C3)nc2)on1 (single isomer, unassigned) [Example 117, 5-(3-hydroxyisoxazol-5-yl)-2-({3-[3-(trifluoromethoxy)phenyl]cyclopentyl}oxy)pyridinium trifluoroacetate] | 0.059
12 | Oc1cc(-c2cnc(O[C@H]3C[C@@H](Oc4ccc(F)c(C(F)(F)F)c4)C3)cn2)on1 [Example 70, 5-[5-({cis-3-[4-fluoro-3-(trifluoromethyl)phenoxy]cyclobutyl}oxy)pyrazin-2-yl]isoxazol-3-ol] | 0.024
13 | CCOc1cc([C@H]2C[C@H](Oc3cnc(-c4cc(O)no4)cn3)C2)ccn1 [Example 27, sodium 5-(5-{[trans-3-(2-ethoxypyridin-4-yl)cyclobutyl]oxy}pyrazin-2-yl)isoxazol-3-olate] | 0.177
14 | Oc1cc(-c2ccc(O[C@H]3C[C@H](c4ccnc(OC5CC5)c4)C3)nc2)on1 [Example 31, sodium 5-[6-({trans-3-[2-(cyclopropyloxy)pyridin-4-yl]cyclobutyl}oxy)pyridin-3-yl]isoxazol-3-olate] | 0.062
15 | Oc1cc(-c2cnc(O[C@H]3C[C@@H](c4ccc(C(F)(F)F)cc4)C3)cn2)on1 [Example 55, 5-[5-({cis-3-[4-(trifluoromethyl)phenyl]cyclobutyl}oxy)pyrazin-2-yl]isoxazol-3-ol] | 0.011

Second part, the compound after the results:

Row | EC50 [µM] | SMILES
16 | 0.025 | Oc1cc(-c2cnc(O[C@H]3C[C@@H](Oc4csc(C(F)(F)F)c4)C3)cn2)on1 [Example 69, 5-{5-[(cis-3-{[5-(trifluoromethyl)thiophen-3-yl]oxy}cyclobutyl)oxy]pyrazin-2-yl}isoxazol-3-ol]
17 | 0.388 | N#Cc1cccc(COC2CC(Oc3ccc(-c4cc(O)no4)cn3)C2)c1F (mixture of isomers) [Example 77, ammonium 5-[6-({cis-3-[(3-cyano-2-fluorobenzyl)oxy]cyclobutyl}oxy)pyridin-3-yl]isoxazol-3-olate (mixture of isomers predominantly cis)]
18 | 0.04 | Oc1cc(-c2ccc(O[C@H]3C[C@@](F)(c4ccc(C(F)F)c(F)c4)C3)nc2)on1 [Example 103, 5-[6-({trans-3-[4-(difluoromethyl)-3-fluorophenyl]-3-fluorocyclobutyl}oxy)pyridin-3-yl)isoxazol-3-ol]
19 | 0.138 | Oc1cc(-c2ccc(OC3CC(OCc4cc(F)ccc4C(F)(F)F)C3)nc2)on1 (mixture of isomers) [Example 76, ammonium 5-{6-[(cis-3-{[5-fluoro-2-(trifluoromethyl)benzyl]oxy}cyclobutyl)oxy]pyridin-3-yl)isoxazol-3-olate (mixture of isomers predominantly cis)]
20 | 0.166 | N#Cc1cccc(COC2CC(Oc3ccc(-c4cc(O)no4)cn3)C2)c1 (mixture of isomers) [Example 73, 3-{[(cis-3-{[5-(3-hydroxyisoxazol-5-yl)pyridin-2-yl]oxy}cyclobutyl)oxy]methyl}benzonitrile (mixture of isomers predominantly cis)]
21 | 0.052 | Oc1cc(-c2cnc(O[C@H]3C[C@@H](Oc4cccc(OC(F)(F)F)c4)C3)cn2)on1 [Example 68, 5-[5-({cis-3-[3-(trifluoromethoxy)phenoxy]cyclobutyl}oxy)pyrazin-2-yl]isoxazol-3-ol]
22 | 0.082 | Oc1cc(-c2cnc(O[C@H]3C[C@@H](c4nc(C(F)(F)F)cs4)C3)cn2)on1 [Example 5, 5-[5-({cis-3-[4-(trifluoromethyl)-1,3-thiazol-2-yl]cyclobutyl}oxy)pyrazin-2-yl]isoxazol-3-ol]
23 | 0.017 | Oc1cc(-c2cnc(O[C@H]3C[C@@H](c4cccc(OC(F)F)c4F)C3)cn2)on1 [Example 41, 5-[5-({cis-3-[3-(difluoromethoxy)-2-fluorophenyl]cyclobutyl}oxy)pyrazin-2-yl]isoxazol-3-ol]
24 | 0.037 | Oc1cc(-c2cnc(O[C@H]3C[C@@H](Oc4cccc(C(F)(F)F)c4)C3)cn2)on1 [Example 66, ammonium 5-[5-({cis-3-[3-(trifluoromethyl)phenoxy]cyclobutyl}oxy)pyrazin-2-yl]isoxazol-3-olate]
25 | 0.018 | Oc1cc(-c2ccc(OC3CCC(c4cccc(OC(F)(F)F)c4)C3)nc2)on1 (single isomer, unassigned) [Example 116, 5-(3-hydroxyisoxazol-5-yl)-2-({3-[3-(trifluoromethoxy)-phenyl]cyclopentyl}oxy)pyridinium trifluoroacetate]
26 | 0.155 | Oc1cc(-c2cnc(O[C@H]3C[C@@H](c4ccc(C5CC(F)(F)C5)cc4)C3)cn2)on1 [Example 30, 5-[5-({cis-3-[4-(3,3-difluorocyclobutyl)phenyl]cyclobutyl}oxy)pyrazin-2-yl)isoxazol-3-ol]
